# According to patent US10722488B2, “Hest G-18-0 and benzoyl peroxide compositions and methods for using the same” (RODAN & FIELDS, LLC, priority 2016, dated 2020):
# Assays:
# [1] = Solubility of benzoyl peroxide, judged by eye (crystals disappear or stay at the bottom); format: physicochemical
# Description: In embodiments described herein, the solubility of benzoyl peroxide is increased. The composition of benzoyl peroxide and Hest G-18-0 is transparent. Solubility is measured by visualizing whether the solid crystalline form of benzoyl peroxide disappears in the liquid or if it can be seen at the bottom of the solution in an undissolved crystalline form.
# [2] = cited from earlier work
# skin of the forearm = settings: in vivo
Compound,"solubility of benzoyl peroxide in Hest G-18-0 ([1]; 5% benzoyl peroxide in 100% Hest G-18-0, visual, FIG. 1 right beaker)","solubility of benzoyl peroxide in ethoxydiglycol ([1]; 5% benzoyl peroxide in 100% ethoxydiglycol, visual, FIG. 1 left beaker)",solubility of benzoyl peroxide in water ([2]; at 25° C.) [ppm],"solubility in common cosmetic solvents ([2]; ethanol, glycerin, propylene glycol, or butylene glycol)",erythema of the skin (skin of the forearm)
"O=C(OOC(=O)c1ccccc1)c1ccccc1 [benzoyl peroxide, Benzoyl peroxide]",completely dissolved,insolubility,9.1,practically insoluble,
Glycereth-18 ethylhexanoate [Hest G-18-0],,,,,greatly reduced
